Reference: patent publication US9745282B2, “Indoline compounds as aldosterone synthase inhibitors” (Merck Sharp & Dohme Corp., priority 2012, dated 2017)

Key:
human CYP11B2 = human CYP11B2 (Homo sapiens (Human), UniProt P19099); experiment: V79-Human-CYP11B2 cell assay, modified protocol; type: cell-based; details: V79 cells expressing human CYP11B2
Method: (§1) V79 cell lines stably expressing the either the human CYP11B2 or the human CYP11B1 enzyme were generated using a standard transfection protocol. V79 cells were transfected with plasmids pTriEx3-Hygro-hCyp11B2 or pTriEx3-Hygro-hCyp11B1 using Lipofectamine2000 reagent. V79 cells that stably express the human CYP11B2 or human CYP11B1 enzyme were selected for and maintained in DMEM supplemented with 10% FBS and 400 μg/mL hygromycin for 2 weeks. Single cell clones were generated by infinite dilution in DMEM supplemented with 10% FBS and 400 μg/mL hygromycin until single colonies were obtained. […] For testing of inhibitors, cells were harvested at 80% confluency with 0.05% Trypsan-EDTA, washed once in PBS, and reconstituted in DMEM+0.1% BSA media at a cell concentration of 600,000 cells/mL for the CYP11B2 assay and 280,000 cells/mL for the CYP11B1 assay. 25 μL of cells were added to a 384 well tissue culture treated plate and mixed with 0.3 μL of inhibitor or DMSO (1% final DMSO concentration) for 1 hour at 37° C., 5% CO2. After pre-incubation with inhibitor, the reaction was initiated by adding 5 μL of substrate (final concentration of 125 nM 11-deoxycorticosterone for the CYP11B2 assay or 250 nM 11-deoxycortisol for the CYP11B1 assay). The reaction was carried out for 3 hours at 37° C., 5% CO2 and was stopped by harvesting the supernatants. The amount of product in the supernatant (aldosterone for CYP11B2 assay and cortisol for the CYP11B1 assay) was measured using HTRF-based assay kit (Aldosterone HTRF-CisBio#64ALDPEB, Cortisol HTRF-CisBio #63IDC002-CORT). IC50s for the inhibitor were determined by plotting the amount of product formed against the concentration of inhibitor using sigmoidal dose-response curve (variable slope) fit in GraphPad.
(§2) For the CYP11B2 assay, cells were reconstituted in DMEM+0.1% BSA media at a cell concentration of 600,000 cells/mL and for the CYP11B1 assay cells were reconstituted in DMEM+0.1% BSA media at a cell concentration of 280,000 cells/mL. 25 μl of cells were added to a 384 well tissue culture treated plate and mixed with […] or DMSO (1% final DMSO concentration) for 1 hour at 37° C., 5% CO2.

human CYP11B1 = human CYP11B1 (Homo sapiens (Human), UniProt P15538); experiment: V79-Human-CYP11B1 cell assay, modified protocol; type: cell-based; details: V79 cells expressing human CYP11B1
Sequence of human CYP11B1 (P15538 25-503): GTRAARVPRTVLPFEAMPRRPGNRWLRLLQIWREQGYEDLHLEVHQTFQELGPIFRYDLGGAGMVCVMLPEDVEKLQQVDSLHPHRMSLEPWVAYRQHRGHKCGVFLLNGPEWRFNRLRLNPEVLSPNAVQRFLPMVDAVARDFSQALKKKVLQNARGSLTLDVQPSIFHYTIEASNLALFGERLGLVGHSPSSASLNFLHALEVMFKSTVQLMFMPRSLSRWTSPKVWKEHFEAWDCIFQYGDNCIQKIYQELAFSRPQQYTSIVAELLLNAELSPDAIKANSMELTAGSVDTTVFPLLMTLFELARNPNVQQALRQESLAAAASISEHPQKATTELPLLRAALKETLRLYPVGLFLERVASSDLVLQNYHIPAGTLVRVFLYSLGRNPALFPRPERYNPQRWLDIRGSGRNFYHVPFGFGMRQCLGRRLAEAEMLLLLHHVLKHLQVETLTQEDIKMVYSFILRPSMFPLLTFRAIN
Method: as §1, §2

Sequence of human CYP11B2 (P19099 25-503): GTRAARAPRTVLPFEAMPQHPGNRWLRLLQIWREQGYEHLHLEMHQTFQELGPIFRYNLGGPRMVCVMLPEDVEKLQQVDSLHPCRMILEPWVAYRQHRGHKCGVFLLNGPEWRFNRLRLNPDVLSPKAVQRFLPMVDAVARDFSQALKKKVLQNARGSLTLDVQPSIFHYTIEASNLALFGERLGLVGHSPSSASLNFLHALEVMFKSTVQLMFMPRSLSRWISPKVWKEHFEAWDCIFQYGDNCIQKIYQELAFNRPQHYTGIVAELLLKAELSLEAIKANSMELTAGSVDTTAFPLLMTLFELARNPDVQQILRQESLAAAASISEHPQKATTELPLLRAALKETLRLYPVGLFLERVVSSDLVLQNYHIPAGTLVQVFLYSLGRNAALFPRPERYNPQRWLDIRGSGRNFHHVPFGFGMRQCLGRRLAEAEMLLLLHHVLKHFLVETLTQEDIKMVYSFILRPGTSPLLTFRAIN

| IC50 (human CYP11B2) [µM] | IC50 (human CYP11B1) [µM] | SMILES |
| --- | --- | --- |
| 0.006 | 3.38 | CC(=S)N1CCc2cc(-c3cccnc3)ccc21 [Example 34, 1-(5-(pyridin-3-yl)indolin-1-yl)ethanethione] |
| 0.023 | 1.38 | CC(=O)n1ccc2cc(-c3cccnc3)ccc21 [Example 50, 1-Acetyl-5-pyridin-3-yl-1H-indole] |
| 0.016 | 0.803 | COc1cncc(-c2ccc3c(c2)CCN3C(C)=O)c1 [Example 54, 1-acetyl-5-(5-methoxypyridin-3-yl)-2,3-dihydro-1H-indole] |
| 0.0022 | 0.366 | CC(=O)N1CCc2cc(-c3cnccc3C)ccc21 [Example 58, 1-acetyl-5-(4-methylpyridin-3-yl)-2,3-dihydro-1H-indole] |
